Series [1] is described as follows: Molar enthalpy of transition or fusion. The settings on record: DSC.
For series [2] the following is noted: DTA.

Numbers after ± are expanded uncertainties.

We go through 2 compounds from the NIST ThermoML archive (doi:10.1016/j.tca.2015.05.002).

Turning to `CCCCCC(=O)[O-].CCCCCC(=O)[O-].CCCCCC(=O)[O-].[La+3]` [lanthanum(III) hexanoate], the “Molar enthalpy of transition or fusion” value in series [1] (Crystal 1) was determined as 1.1 ± 0.129 kcal/mol; in series [1] (Crystal 2) it was 1.49 ± 0.134 kcal/mol; in series [1] (Smectic liquid crystal) it was 0.32 ± 0.124 kcal/mol. In addition, the Triple point temperature in series [2] (Crystal 1) is on record as 406.85 ± 10 K; in series [2] (Crystal 2), 380.45 ± 10 K; in series [2] (Smectic liquid crystal), 459.05 ± 0.5 K.

As to `CCCCC(=O)[O-].CCCCC(=O)[O-].CCCCC(=O)[O-].[La+3]` [lanthanum(III) pentanoate], the “Molar enthalpy of transition or fusion” value in series [1] (Crystal 1) turned out to be 1.69 ± 0.136 kcal/mol; in series [1] (Smectic liquid crystal), 0.717 ± 0.127 kcal/mol. Moreover, the Triple point temperature in series [2] (Crystal 1) came out at 410.95 ± 10 K; in series [2] (Crystal 2), 366.15 ± 10 K; in series [2] (Smectic liquid crystal) it was 451.65 ± 10 K.
